US20090247499A1, “SULFONYLATED PIPERAZINES AS CANNABINOID-1 RECEPTOR MODULATORS” (priority 2006, published 2009)
Where two headings read alike, the source gives them in different places.

Experiments:
[1] = target: T1, recombinant human CB1 receptor (Homo sapiens, UniProt P21554); test: Cannabinoid Receptor-1 (CB1) Binding Assay
T1 construct: expressed in transfected cells; CB1-CHO cell suspension for cAMP
Description: Binding affinity determination is based on recombinant human CB1 receptor expressed in Chinese Hamster Ovary (CHO) cells (Felder et al, Mol. Pharmacol. 48: 443-450, 1995). Total assay volume is 250 μl (240 μl CB1 receptor membrane solution plus 5 μl test compound solution plus 5 μl [3H]CP-55940 solution). Final concentration of [3H]CP-55940 is 0.6 nM. Binding buffer contains 50 mM Tris-HCl, pH7.4, 2.5 mM EDTA, 5 mM MgCl2, 0.5 mg/mL fatty acid free bovine serum albumin and protease inhibitors (Cat#P8340, from Sigma). To initiate the binding reaction, 5 μl of radioligand solution is added, the mixture is incubated with gentle shaking on a shaker for 1.5 h at 30° C. The binding is terminated by using 96-well harvester and filtering through GF/C filter presoaked in 0.05% polyethylenimine. The bound radiolabel is quantitated using scintillation counter. Apparent binding affinities for various compounds are calculated from IC50 values (DeBlasi et al., Trends Pharmacol Sci 10: 227-229, 1989).

[2] = target: T2, recombinant human CB1 receptor expressed in CHO cells (Homo sapiens, UniProt P21554); test: Cannabinoid Receptor-1 (CB1) Functional Activity Assay (cAMP); assay type: cell-based
T2 construct: expressed in transfected cells; CB1-CHO cell suspension for cAMP
T2 sequence (P21554 whole entry): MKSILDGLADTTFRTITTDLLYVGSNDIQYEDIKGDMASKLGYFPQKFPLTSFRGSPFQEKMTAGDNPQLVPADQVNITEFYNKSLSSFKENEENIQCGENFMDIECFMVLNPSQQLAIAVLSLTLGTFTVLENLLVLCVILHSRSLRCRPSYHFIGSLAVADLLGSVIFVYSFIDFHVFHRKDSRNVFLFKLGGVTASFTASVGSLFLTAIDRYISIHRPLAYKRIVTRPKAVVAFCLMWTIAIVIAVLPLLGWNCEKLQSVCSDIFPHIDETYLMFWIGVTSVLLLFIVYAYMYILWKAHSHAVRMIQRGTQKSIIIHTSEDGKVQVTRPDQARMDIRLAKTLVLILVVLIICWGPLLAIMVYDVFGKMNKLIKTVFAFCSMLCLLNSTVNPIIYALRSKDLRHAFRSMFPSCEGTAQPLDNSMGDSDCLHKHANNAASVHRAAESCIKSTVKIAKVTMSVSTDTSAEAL
Description: The functional activation of CB1 receptor is based on recombinant human CBI receptor expressed in CHO cells (Felder et al, Mol. Pharmacol. 48: 443-450, 1995). To determine the agonist activity or inverse agonist activity of any test compound, 50 ul of CB1-CHO cell suspension are mixed with test compound and 70 ul assay buffer containing 0.34 mM 3-isobutyl-1-methylxanthine and 5.1 uM of forskolin in 96-well plates. The assay buffer is comprised of Earle's Balanced Salt Solution supplemented with 5 mM MgCl2, 1 mM glutamine, 10 mM HEPES, and 1 mg/mL bovine serum albumin. The mixture is incubated at room temperature for 30 minutes, and terminated by adding 30 μl/well of 0.5M HCl. The total intracellular cAMP level is quantitated using the New England Nuclear Flashplate and cAMP radioimmunoassay kit.

[3] = recombinant human CB1 receptor in CHO cells, [3H]CP-55940 0.6 nM, read-out: CB1 binding IC50
[4] = CB1-CHO cells, forskolin, intracellular cAMP, read-out: CB1 function activity EC50

T1 sequence (P21554 whole entry): as above

Compound	IC50 [1, 3] [nM]	EC50 [2, 4] [nM]	IC50 [1] [nM]	EC50 [2] [nM]
O=C(CC1CC1)N1CCN(S(=O)(=O)c2cccc3ccccc23)CC1 [Example 17, 4-(cyclopropyl-acetyl)-1-(1-naphthylsulfonyl)piperazine]	303	1.1	–	–
O=C(N1CCCCC1)N1CCN(S(=O)(=O)c2cccc3ccccc23)CC1 [Example 83, 4-(piperidin-1-yl-carbonyl)-1-(1-naphthylsulfonyl) piperazine]	3790	10.5	–	–
O=C(c1ccccc1)N1CCN(S(=O)(=O)c2cc(C(F)(F)F)cc(C(F)(F)F)c2)CC1 [Example 89, 4-benzoyl-1-((3,5-bis(trifluoromethyl)phenyl)sulfonyl)piperazine]	3220	37.7	–	–
O=C(C1CCCCC1)N1CCN(S(=O)(=O)c2cc(Cl)cc(Cl)c2)CC1 [Example 101, 4-(cyclohexyl-carbonyl)-1-((3,5-dichlorophenyl)sulfonyl)piperazine]	422	0.41	–	–
O=C(C1CCCCC1)N1C2CCC1CN(S(=O)(=O)c1cccc3ccccc13)C2 [Example 114, 8-(cyclohexylcarbonyl)-3-(1-naphthylsulfonyl)-3,8-diazabicyclo[3.2.1]octane]	–	–	3190	15.1
O=C(Cc1ccc(C(F)(F)F)cc1)N1CCN(S(=O)(=O)c2cc(C3CC3)cc(C(F)(F)F)c2)CC1 [Example 123, 4-(4-trifluoromethylphenyl-acetyl)-1-((3-cyclopropyl-5-trifluoromethyl-phenyl)sulfonyl)piperazine]	–	1.09	1.24	–
COC(=O)c1cc(C(F)(F)F)cc(S(=O)(=O)N2CCN(C(=O)Cc3ccc(C(F)(F)F)cc3)CC2)c1 [Example 125, 4-(4-trifluoromethylphenyl-acetyl)-1-((3-methoxycarbonyl-5-trifluoromethyl-phenyl)sulfonyl)piperazine]	6.07	0.7	–	–
O=C(C1CCCCC1)N1CCN(S(=O)(=O)c2cc(C(F)(F)F)cc(C(F)(F)F)c2)CC1 [Example 132, 4-(cyclohexyl-carbonyl)-1-((3,5-bis(trifluoromethyl)phenyl)sulfonyl)piperazine]	260	–	–	1.07
